Test in all cases: NCI tumour cell line growth inhibition, 48 h
Experiment [1] concerns DMS 273 small cell lung.
For experiment [2], the system named is DMS 114 small cell lung.
Experiment [3] concerns LXFL 529 NSCLC.
The test system of experiment [4] is XF 498 CNS.
The test system of experiment [5] is MDA-N.
The test system of experiment [6] is PC-3 prostate.
The test system of experiment [7] is MDA-MB-231 breast.
Experiment [8] relates to HOP-18 NSCLC.

The results in this text go back to PubChem BioAssay (NCI).

“And” between values parts separate entries of the source, which are not always exact repeats. Equal values may be shown once.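 1) Cells in 96-well plates. 2) Compound, 48 h, 5 concentrations. 3) Linear interpolation between surrounding doses. 4) Unreached endpoint = highest concentration. Here, GI50 denotes the concentration required for 50% inhibition of growth. TGI: concentration producing complete growth inhibition.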

For the compound `CN1C/C(=C\c2ccco2)c2nc(N)nc(-c3ccco3)c2C1`, the TGI in experiment [1] is above 100 µM; in experiment [2], above 100 µM; in experiment [3], above 100 µM; in experiment [4] it was 90.2 µM.

With `Cc1cc2c(SCc3ccccc3Cl)nc(N)nc2nc1C`, the TGI in experiment [5], in experiment [6] and in experiment [7] was above 100 µM throughout.

Regarding `COc1cc([C@H]2c3cc(O)c(OC)cc3C[C@]3(O)[C@@H]2CO[C@@H]3O)ccc1O`, the TGI in experiment [5], in experiment [6] and in experiment [7] was above 100 µM in each case.

`O=C(NCc1cccnc1)c1ccc([N+](=O)[O-])o1`: in experiment [6], the GI50 was 2520 nM and the TGI was above 19.1 µM. In experiment [7], the GI50 was 16100 nM and the TGI is above 32.5 µM.

`O=c1cccccc1[O-].O=c1cccccc1[O-].O=c1cccccc1[O-].[Dy+3]`: in experiment [1], the GI50 is 9.28 µM and the TGI was above 100 µM.

Regarding `CCNc1nc(-c2ccc(Cl)c(OC)c2)c(-c2ccnc(NCCNS(=O)(=O)c3ccc(Cl)cc3)n2)s1`, in experiment [6], the GI50 was 2990 nM and the TGI was above 100 µM. Besides, in experiment [7], the GI50 was 2150 nM and the TGI was 5.03 µM.

`COC(=O)C(NC(=O)c1ccccc1)c1ccc(OC)c(I)c1` (stereo not drawn): the GI50 was 40100 nM in experiment [6] and 27200 nM in experiment [7]. For the same compound, the TGI in experiment [6] and in experiment [7] was above 100 µM throughout.

With `CCc1c[nH]c2ncnc(N3CC[C@](N)(CNC(=O)c4ccc(F)cc4F)C3)c12`, in experiment [6], the GI50 was 1000 nM and the TGI was above 91.7 µM. In experiment [7], the GI50 was 48500 nM and the TGI was above 100 µM.

Consider `CN1CCN(Cc2ccc(NC(=O)c3cncc(C#Cc4cnc5cccnn45)c3)cc2C(F)(F)F)CC1`, for which, in experiment [6], the GI50 was 1440 nM and the TGI is 5.75 µM. In experiment [7], the GI50 is 798 nM and the TGI was 3.87 µM.

Consider `Cn1c(=O)c(Oc2ccc(F)cc2F)cc2cnc(NC3CCC(O)CC3)nc21` (stereo not drawn), for which the GI50 in experiment [6] and in experiment [7] was above 25000 nM in each case. Moreover, the TGI in experiment [6] and in experiment [7] was above 25 µM in each case.

Take `CN(C)c1ccc(/C=C2\Cc3ccccc3C2=O)cc1Br`: the TGI in experiment [2] is above 100 µM; in experiment [3], above 100 µM; in experiment [4], 86.2 µM.

On to `CCC(=C(c1ccc(OCCN(CC)CC)cc1)c1ccc(OCCN(CC)CC)cc1)c1ccc(Cl)cc1`, for which the GI50 in experiment [6] was 581 nM; in experiment [7], 573 nM. In addition, the TGI was 1.24 µM in experiment [6] and 1.09 µM in experiment [7].

Regarding `O=NNc1nc(-c2ccccn2)nc2ccccc12`, the TGI in experiment [5], in experiment [6] and in experiment [7] was above 100 µM throughout.

Regarding `Cc1c2cc[n+](C)cc2c(C)c2c1[nH]c1ccc(Oc3ccccc3)cc12`, the GI50 in experiment [1] was 1.15 µM; in experiment [8] it was 2.37 µM and 5.56 µM. The TGI in experiment [1] was above 100 µM; in experiment [8], 21.8 µM and 32.5 µM; in experiment [3] it was 6.13 µM and 6.82 µM.

As to `Nc1ccc2ncc(Nc3ccc(Cl)c(Cl)c3)nc2c1`, the TGI in experiment [1] is 49.5 µM; in experiment [2], 42.1 µM; in experiment [3], above 100 µM; in experiment [4], 60.8 µM.

Consider `O=C(/C=C/c1ccc(OCC(=O)N2CCN(c3ccccc3)CC2)cc1)c1ccccc1`, for which the results for the TGI in experiment [8] and in experiment [3] were above 82.7 µM and above 94.2 µM, respectively.

On to `C=CCCC1(CCP(=O)(c2ccccc2)c2ccccc2)OCCO1`, for which the TGI in experiment [5], in experiment [6] and in experiment [7] was above 100 µM each time.

`CC(C)(CCc1nc2ccccc2[nH]1)C(=O)O`: the TGI in experiment [5], in experiment [6] and in experiment [7] was above 100 µM in each case.

Regarding `CS(=O)(=O)Nc1ccc(Nc2c3ccccc3nc3cc(Cl)ccc23)cc1`, in experiment [6], the GI50 is 2470 nM and the TGI was determined as 19.4 µM. Also, in experiment [7], the GI50 was 4560 nM and the TGI worked out at 19.8 µM.

For the compound `COc1cc(-c2nn(-c3cccc(NC(=O)c4cccc(C(F)(F)F)c4)c3)cc2-c2ccncc2)ccc1Cl`, in experiment [6], the GI50 is 1230 nM and the TGI is above 50 µM. Moreover, in experiment [7], the GI50 is 1240 nM and the TGI stood at 9.96 µM.

Take `CCOC(=O)C1C(=O)C(=O)N2CCc3c([nH]c4ccccc34)C12` (stereo not drawn): the TGI in experiment [2] and in experiment [3] was above 100 µM each time.

On to `COc1cc(/C=C/C(=O)c2c(-c3ccc(Cl)cc3)nc3sc(C)nn23)cc(OC)c1OC`, for which, in experiment [7], the GI50 was 14300 nM and the TGI is above 100 µM.

`CCn1c(SC)nnc1-c1cc2c([nH]c3ccccc32)c(-c2cccc(O)c2)n1`: in experiment [6], the GI50 is 2830 nM and the TGI was above 100 µM. For the same compound, in experiment [7], the GI50 is 2430 nM and the TGI came to 15.9 µM.

For `O=C(COC(=O)[C@H](C[Se][Se]C[C@H](NC(=O)c1ccc(Br)cc1F)C(=O)OCC(=O)c1ccc(F)cc1)NC(=O)c1ccc(Br)cc1F)c1ccc(F)cc1`, the GI50 is 375 nM in experiment [6] and 1650 nM in experiment [7]. Also, the results for the TGI in experiment [6] and in experiment [7] were 1.38 µM and 4.03 µM, respectively.

Consider `O=C1OC(c2ccccc2)=N/C1=C\c1ccc(N(CCCl)CCCl)cc1`, for which the TGI in experiment [5], in experiment [6] and in experiment [7] was above 100 µM in each case.

In the case of `c1csc(-c2[nH]nc3c2CCc2ccccc2-3)c1`, in experiment [6], the GI50 is 12500 nM and the TGI was found to be 37.5 µM. In experiment [7], the GI50 is 966 nM and the TGI was 19.5 µM.

As for `O=C1C(=O)c2c(ccc3ccccc23)-c2ccccc21`, in experiment [6], the GI50 is 1810 nM and the TGI turned out to be 6.25 µM. In experiment [7], the GI50 was 1630 nM and the TGI was found to be 8.08 µM.

As for `CC(=O)OC1CCC2(C)C(=CCC3C4CC(CN5CC5)C(=O)C4(C)CCC32)C1` (stereo not drawn), the GI50 is 12700 nM in experiment [6] and 11800 nM in experiment [7]. In addition, the TGI in experiment [6] worked out at 26.8 µM; in experiment [7], 25 µM.
